This is an account of results in patent US10421761B2, “Compounds for kinase modulation, and indications therefor” (Plexxikon Inc., priority 2013, dated 2019).

By AUC is commonly meant the area under the concentration-time curve, a measure of exposure.

This data set is described as follows: Plasma exposure (PK analysis) in the xenograft efficacy study. Type of data set: in vivo. As to conditions: mouse, oral, COLO205 xenograft model, 25 mg/kg twice daily, read-out: plasma exposure, steady state AUC. How it is done:
All animal studies were conducted in accordance with the Institute for Laboratory Animal Research Guide for the Care and Use of Laboratory Animals and the USDA Animal Welfare Act. The same formulation was used for both COL0205 and B9 xenograft studies. The powder of test compound was dissolved in pure N-methyl-2-pyrrolidone (NMP). Diluent consists of PEG400: TPGS:Poloxamer 407:Water (40:5:5:50). Before gavage administration, fresh stock of NMP compound solution (or NMP for vehicle) was thoroughly mixed with the diluents to make a uniform suspension. Dosing volume is 5 μl/g. On the last day of the efficacy study, blood samples were collected at 0, 2, 4, and 8 hrs after last dosing, 2 animals/time point, for PK analysis.

For `CCCS(=O)(=O)Nc1ccc(F)c(C(=O)c2c[nH]c3ncc(-c4ccc(Cl)cc4)cc23)c1F` [vemurafenib], the AUC was determined as 200 µg·h/mL.
